Results from patent US8263642B2, “Antimicrobial compounds and methods of use thereof” (Vanderbilt University, priority 2008, dated 2012).

Columns and labels:
[1] = test system: hrtAB-driven expression of the xylE reporter gene; assay: XylE reporter assay (hrtAB promoter-xylE), Newman; assay type: cell-based, Staphylococcus aureus; details: for XylE (0.05): level of XylE induction at 0.05 uM of the compound; for XylE (0.5): level of XylE induction at 0.5 uM of the compound; for XylE (5.0): level of XylE induction at 5.0 uM of the compound; for XylE (50.0): level of XylE induction at 50.0 uM of the compound
Protocol: (§1) With reference to Table 1, “Luminescence” refers to the raw luminescence value obtained in a luminomter. “Control (82.5 nm)” refers to the luminescence value obtained from heme at 82.5 nM as a positive control in the same plate as the experimental. “% lum” is the percentage of luminescence induced by the compound as compared to the heme control in the same plate. […] All of these assays are described in the application. […] “N/T” indicates the test was not performed.
Compounds that activate HssRS-driven hrtAB expression in the luciferase-based screen can be subjected to two separate counter screens to confirm these compounds as active hits. First, compounds of interest can be tested for their ability to activate expression of hrtAB in the XylE expression assay described hereinbelow. This is an in vitro assay that measures hrtAB-driven expression of the xylE reporter gene. The XylE-based reporter assay utilizes slightly more manipulations than the primary luciferase-based screen. […] It should be appreciated that a shortcoming of this counter screen is that it measures reporter gene expression, which is a similar activity as that measured in the primary assay. To address this shortcoming, compounds that are positive in both XylE- and luciferase-based assays can be subjected to a second counter screen as described hereinbelow.
S. aureus strains harboring the appropriate reporter construct were inoculated into 500 μl of TSB containing 10 μg/ml chloramphenicol in 1.5 ml tubes. Cultures were grown O/N at 37° C. with shaking. Bacteria were pelleted by centrifugation and spent medium was aspirated. The pellet was washed once with 500 μl of 20 mM potassium phosphate, pH 7.6, and resuspended in 150 μl of 100 mM potassium phosphate buffer, pH 8.0, 10% (v/v) acetone, 25 μg/ml lysostaphin. After 20 minute incubation at 37° C. and 5 minute incubation on ice, samples were centrifuged at 20,000 g for 30 minutes at 4° C. 1-10 μl of supernatant was added to a 96-well plate and 200 μl of 100 mM potassium phosphate, pH 8.0, 0.2 mM pyrocatechol was added to each well. Formation of 2-hydroxymuconic semialdehyde was tracked by measuring the absorbance at 375 nm every minute for 30 minutes on a Varian MP 50 microplate reader. Protein concentration in samples was determined by BCA (Pierce). One unit of specific activity of XylE in a sample is defined as the formation of 1 nmol of 2-hydroxymuconic semialdehyde per minute per milligram of cellular protein at 30° C. (Chien, Y., Manna, A. C., Projan, S. J., and Cheung, A. L. 1999, “SarA, a global regulator of virulence determinants in Staphylococcus aureus, binds to a conserved motif essential for sar-dependent gene regulation. J. Biol. Chem. 274, 37169-37176).
The hrtAB intergenic region was fused to the xylE structural gene by PCR-SOE. In the first reaction, primer P1B:[…] and P2B:[…] were used to amplify the hrtAB intergenic region from S. aureus strain Newman genomic DNA. In the second PCR reaction primers P3B:[…] and P4B:[…] were used to amplify the xylE structural gene using pALC1639 template DNA (provided by Dr. Ambrose Cheung) and PCR product purified using a Qiagen gel extraction kit. For the PCRSOE reaction, a 1:300 dilution of purified reaction 1 and reaction 2 PCR products was mixed and amplified by PCR using […]. This yielded a construct in which the hrtAB intergenic region is fused to the xylE gene in such a manner that the position of the start codon for xylE corresponds to the position of the start codon for […] in the hrtAB locus. The hrtAB promoter-xylE fusion DNA was then subcloned into pOS1. As a control we also constructed a promoterless xylE vector. The xylE gene was amplified from pACL1639 template DNA using the primers P1C:[…] and P2C:[…] and then cloned into the pOS1 vector.

[2] = test system: HssRS-dependent hrtAB expression; assay: Luminescence-based assay to monitor HssRS-dependent hrtAB expression (phrtABlux reporter), Newman; assay type: cell-based, Staphylococcus aureus; details: Newman; for Luminescence: raw luminescence value obtained in a luminometer; for activation at 0.0825 µM: Staphylococcus aureus, NEWMAN, read-out: % Lumi, luminescence induced by the compound compared to the heme control (82.5 nM) in the same plate
Protocol: as §1
A hrtAB-driven expression system was created in the pXen vector system (Xenogen) (Francis, K. P., D. Joh, C. Bellinger-Kawahara, M. J. Hawkinson, T. F. Purchio, and P. R. Contag. 2000. Monitoring bioluminescent Staphylococcus aureus infections in living mice using a novel luxABCDE construct. Infect Immun 68:3594-3600). This vector contains a promoterless luxCDABE operon from Photorabdus luminescens which produces blue green light when expressed. The luxCDABE encodes for a fatty acid reductase (LuxCDE) that produces a long chain fatty aldehyde which, when combined with cellular flavin mononucleotide, is oxidized by a luciferase (LuxAB) to produce light. Therefore, this system is useful in that it bypasses the need for substrate addition and is capable of generating light in the absence of any added reagents. Furthermore, the luminescent signal produced by the combined activities of LuxAB and LuxCDE is of sufficient intensity to be visualized in unmanipulated intact bacteria.
To establish an assay that measures HssRS-dependent expression of luxCDABE, the promoter for hrtAB upstream of luxCDABE was cloned and transformed this vector (phrtABlux) into wildtype and ΔhssR S. aureus. A promoterless vector (plux) and a plasmid containing luxCDABE under the control of a constitutive promoter (psrtAlux) (Mazmanian, S. K., G. Liu, H. Ton-That, and O. Schneewind. 1999. “Staphylococcus aureus sortase, an enzyme that anchors surface proteins to the cell wall.” Science 285:760-763) were included as negative and positive controls, respectively. Initially, wildtype S. aureus harboring either plux, phrtABlux, or psrtAlux were plated on solid medium that either lacked heme or contained 4 μM heme. Only wildtype S. aureus containing psrtAlux produced light on solid media regardless of the presence or absence of heme. […] Light was not produced by bacteria containing plux in either condition.
To adapt this system for a HTS to measure ligand recognition by HssRS, luminescence of wildtype and ΔhssR harboring the above listed plasmids in liquid media with or without heme was measured. […] Taken together, these experiments establish a whole cell […] assay that can identify small molecule modifiers of HssRS. This screen, in some aspects, can identify molecules that can be used as molecular probes in structure-function analyses to determine the mechanism by which S. aureus sense host heme.
Upon staphylococcal exposure to heme, HssRS senses heme and activates expression of hrtAB. This process can be measured using a reporter assay that employs a vector encoding the light-producing luxCDABE operon under the control of the hrtAB promoter. This assay results in whole cell luminescence upon HssRS-dependent activation of hrtAB, forming the foundation for the development of an assay suitable for high-throughput screens for small molecule activators of HssRS.
To develop an automated HTS format, S. aureus wildtype and ΔhssR harboring reporter constructs (psrtAlux, phrtAlux, plux) can be grown for 15 hours at 37° C. in tryptic soy broth (TSB) containing 10 μg/ml chloramphenicol. The addition of chloramphenicol is useful to ensure that the staphylococci propagate the reporter plasmid upon cell division. Following growth, bacterial cultures can be normalized and 2×10^7 cells (approximately 2 μl) can be added to individual wells of black walled, clear bottomed, 96-well plates. […]

CCC(C)NC(=O)c1sc2nc(C)nc(N3CCCCC3)c2c1C (stereo not shown)
XylE (0.05) [1]: 1
XylE (0.5) [1]: 1
XylE (5.0) [1]: 1
XylE (50.0) [1]: 7
Luminescence [2]: 2301

Cc1cccc(NC(=O)c2cc3ccccc3cc2O)c1
XylE (0.05) [1]: 0.02
XylE (0.5) [1]: 0.09
XylE (5.0) [1]: 0.1
XylE (50.0) [1]: 0.02
activation at 0.0825 µM [2]: 217%
Luminescence [2]: 794

O=C1C2=C(Nc3nn(-c4ccccc4)c(O)c3C2c2ccc([N+](=O)[O-])cc2)c2ccccc21 (stereo not shown)
XylE (0.05) [1]: 0.4
XylE (0.5) [1]: 1
XylE (5.0) [1]: 0.3
XylE (50.0) [1]: 1
Luminescence [2]: 2608

CC(C)c1ccc(NS(=O)(=O)c2ccc3[nH]c(-c4ccccc4)nc3c2)cc1
XylE (0.05) [1]: 1
XylE (0.5) [1]: 1
XylE (5.0) [1]: 9
XylE (50.0) [1]: 1
Luminescence [2]: 2146

Cc1ccc(-c2nc(Nc3ccc4c(c3)OCO4)c3ccccc3n2)cc1
XylE (0.5) [1]: 0.04
XylE (5.0) [1]: 0
XylE (50.0) [1]: 0
Luminescence [2]: 2101

CCc1ccc2oc(-c3ccc(NC(=O)c4ccccc4OC)cc3)nc2c1
XylE (0.5) [1]: 0.05
XylE (5.0) [1]: 2
XylE (50.0) [1]: 3
Luminescence [2]: 2392

Cc1ccc2c(c1)C(c1ccccc1)=NNC(c1ccccc1)=N2
XylE (0.5) [1]: 0
XylE (5.0) [1]: 0.2
XylE (50.0) [1]: 0.4
Luminescence [2]: 2763

Cc1cccc(C(=O)Nc2ccc(-c3nc4ccccc4o3)cc2)c1 [drawing 27]
XylE (0.05) [1]: 0.07
XylE (0.5) [1]: 0.09
XylE (5.0) [1]: 0.08
XylE (50.0) [1]: 0.2
activation at 0.0825 µM [2]: 294%
Luminescence [2]: 837

O=C(Nc1ccncc1)c1ccc(COc2ccccc2Cl)cc1
XylE (0.5) [1]: 0.09
XylE (5.0) [1]: 0
XylE (50.0) [1]: 1
activation at 0.0825 µM [2]: 478%
Luminescence [2]: 1589

COc1ccc(/C=C/c2nc3ccccc3c(=O)n2-c2cccc(C(=O)O)c2)cc1
XylE (0.5) [1]: 0.04
XylE (5.0) [1]: 0.08
XylE (50.0) [1]: 0.05
activation at 0.0825 µM [2]: 705%
Luminescence [2]: 1995

O=c1oc2ccccc2c(O)c1C(c1ccc([N+](=O)[O-])o1)c1c(O)c2ccccc2oc1=O
XylE (0.5) [1]: 0.02
XylE (5.0) [1]: 0.07
XylE (50.0) [1]: 0
activation at 0.0825 µM [2]: 559%
Luminescence [2]: 1939

Cc1c(NC(=O)c2ccc(Cl)c([N+](=O)[O-])c2)cccc1-c1nc2ccccc2o1
XylE (0.5) [1]: 0.06
XylE (5.0) [1]: 0.1
XylE (50.0) [1]: 0.5
Luminescence [2]: 1912

Cc1cc(-c2ccc(N)cc2)nc2ccc3ccccc3c12
XylE (0.05) [1]: 0.09
XylE (0.5) [1]: 0.06
XylE (5.0) [1]: 0.02
XylE (50.0) [1]: 0.04
activation at 0.0825 µM [2]: 136%
Luminescence [2]: 576

Cc1ccc(Nc2nc(-c3ccccc3O)nc3ccccc23)cc1
XylE (0.5) [1]: 0.04
XylE (5.0) [1]: 0.1
XylE (50.0) [1]: 0.08
activation at 0.0825 µM [2]: 360%
Luminescence [2]: 1922

COc1ccc(C2CC(C3C(=O)c4ccccc4C3=O)=NN2)cc1 (stereo not shown)
XylE (0.5) [1]: 0.08
XylE (5.0) [1]: 5
XylE (50.0) [1]: 0.09
Luminescence [2]: 1888

O=C(NC(=S)Nc1ccc(Oc2ccccc2)cc1)c1cccs1
XylE (0.5) [1]: 0.01
XylE (5.0) [1]: 0.09
XylE (50.0) [1]: 0.01
activation at 0.0825 µM [2]: 415%
Luminescence [2]: 1774

COc1cccc(-c2cc(C(=O)Nc3ccccc3C(F)(F)F)c3ccccc3n2)c1
XylE (0.5) [1]: 0
XylE (5.0) [1]: 0.05
XylE (50.0) [1]: 0.09
activation at 0.0825 µM [2]: 450%
Luminescence [2]: 1642

O=[N+]([O-])c1ccc(O)c(C2NN=C(Cc3ccccc3)S2)c1 (stereo not shown)
XylE (0.05) [1]: 0.02
XylE (0.5) [1]: 0.05
XylE (5.0) [1]: 1
XylE (50.0) [1]: 1
activation at 0.0825 µM [2]: 871%
Luminescence [2]: 2805

COc1cc(OC)cc(C(=O)Nc2ccc(-c3nc4cc(C)ccc4o3)cc2)c1
XylE (0.5) [1]: 0.1
XylE (5.0) [1]: 0.6
XylE (50.0) [1]: 0
activation at 0.0825 µM [2]: 345%
Luminescence [2]: 1765

O=S(=O)(Nc1cc(Cl)ccc1Cl)c1ccc(Cl)cc1
XylE (0.05) [1]: 0.02
XylE (0.5) [1]: 0.07
XylE (5.0) [1]: 0.5
XylE (50.0) [1]: 0.1
activation at 0.0825 µM [2]: 146%
Luminescence [2]: 618

CC(C)(C)c1cc2c(c(C(C)(C)C)c1)OC(c1cc([N+](=O)[O-])ccc1O)N2 (stereo not shown)
XylE (0.5) [1]: 0.04
XylE (5.0) [1]: 0
XylE (50.0) [1]: 0.04
Luminescence [2]: 1805

CC1(C)CC(=O)C(=CNCc2ccc(F)cc2)C(=O)C1
XylE (0.05) [1]: 0.07
XylE (0.5) [1]: 0.09
XylE (5.0) [1]: 0.9
XylE (50.0) [1]: 0.06
activation at 0.0825 µM [2]: 120%
Luminescence [2]: 1003

Cc1c(-c2ccccc2)nc2ccccc2c1C(=O)Nc1ccccc1C(F)(F)F
XylE (0.05) [1]: 0.5
XylE (0.5) [1]: 0.7
XylE (5.0) [1]: 0.03
XylE (50.0) [1]: 0.02
Luminescence [2]: 2424

O=C(Nc1ccc(NC(=O)c2ccccc2)c(Cl)c1)c1ccccc1
XylE (0.05) [1]: 0.06
XylE (0.5) [1]: 0.05
XylE (5.0) [1]: 0.07
XylE (50.0) [1]: 0.02
activation at 0.0825 µM [2]: 102%
Luminescence [2]: 291
